Test results published in ChEMBL document CHEMBL5346971, “Discovery of the First Irreversible HDAC6 Isoform Selective Inhibitor with Potent Anti-Multiple Myeloma Activity” (J Med Chem, 2023).
The source made the active and inactive calls. The rule behind the calls is not given here.

Columns and labels:
[1] = biological target: Class 1 histone deacetylase (Homo sapiens) (UniProt Q13547+O15379+Q92769+Q9BY41); test: Irreversible inhibition of class 1 HDAC in human A549 cells assessed as acetyl histone H3 level at 0.4 uM incubated for 5 hrs followed by drug wash-out for 1 hr by western blot analysis relative to control; format: cell-based
[2] = biological target: T1, Protein deacetylase HDAC6 (Homo sapiens) (UniProt Q9UBN7); test: Irreversible inhibition of HDAC6 in human A549 cells assessed as acetyl alpha-tubulin level at 0.4 uM incubated for 5 hrs followed by drug wash-out for 6 hrs by western blot analysis relative to control; format: cell-based
T1 sequence (whole entry): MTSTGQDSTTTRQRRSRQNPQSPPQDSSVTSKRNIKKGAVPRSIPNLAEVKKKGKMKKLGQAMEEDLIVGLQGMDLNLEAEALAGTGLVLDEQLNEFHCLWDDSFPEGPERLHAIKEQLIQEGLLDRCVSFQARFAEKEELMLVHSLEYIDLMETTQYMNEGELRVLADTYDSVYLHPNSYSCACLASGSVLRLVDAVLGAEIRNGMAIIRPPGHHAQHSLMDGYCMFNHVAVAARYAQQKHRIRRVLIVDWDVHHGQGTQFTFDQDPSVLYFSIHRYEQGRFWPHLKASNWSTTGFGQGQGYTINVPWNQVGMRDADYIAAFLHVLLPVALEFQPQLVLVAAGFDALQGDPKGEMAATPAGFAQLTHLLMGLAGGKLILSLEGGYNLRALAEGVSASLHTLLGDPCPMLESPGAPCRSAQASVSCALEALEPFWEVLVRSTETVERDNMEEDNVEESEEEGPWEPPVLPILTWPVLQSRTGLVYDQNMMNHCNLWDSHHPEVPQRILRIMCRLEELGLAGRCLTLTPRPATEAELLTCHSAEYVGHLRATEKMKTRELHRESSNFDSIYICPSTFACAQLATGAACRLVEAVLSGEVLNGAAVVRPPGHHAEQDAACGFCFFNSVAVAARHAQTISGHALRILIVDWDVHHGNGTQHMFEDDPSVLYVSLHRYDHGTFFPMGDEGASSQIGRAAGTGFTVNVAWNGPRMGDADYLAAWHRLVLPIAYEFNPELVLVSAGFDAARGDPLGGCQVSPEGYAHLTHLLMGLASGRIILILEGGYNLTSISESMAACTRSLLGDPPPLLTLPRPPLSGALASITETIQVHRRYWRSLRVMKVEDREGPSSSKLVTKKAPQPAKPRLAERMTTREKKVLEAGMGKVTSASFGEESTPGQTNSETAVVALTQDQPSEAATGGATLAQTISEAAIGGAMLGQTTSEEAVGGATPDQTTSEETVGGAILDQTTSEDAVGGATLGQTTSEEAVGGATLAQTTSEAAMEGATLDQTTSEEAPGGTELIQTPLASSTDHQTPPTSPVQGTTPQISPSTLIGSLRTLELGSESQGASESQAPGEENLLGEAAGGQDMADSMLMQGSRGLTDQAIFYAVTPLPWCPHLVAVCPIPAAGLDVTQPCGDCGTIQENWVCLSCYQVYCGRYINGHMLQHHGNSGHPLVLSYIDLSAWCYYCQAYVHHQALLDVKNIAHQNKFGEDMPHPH

[3] = Effect on HDAC6 protein expression in human A549 cells assessed as change in HDAC6 protein expression at 0.4 uM incubated for 5 hrs followed by drug wash-out for 6 hrs by western blot analysis relative to control; format: functional
[4] = biological target: Histone deacetylase 1 (Homo sapiens, UniProt Q13547); test: Inhibition of C-terminal His/FLAG-tagged human full length recombinant HDAC1 (1 to 482 residues) expressed in Sf9 cells using Boc-Lys(acetyI)-AMC as substrate preincubated with enzyme for 1 hr followed by substrate addition and measured after 30 mins by fluorescence based analysis
[5] = biological target: Histone deacetylase 3/Nuclear receptor corepressor 2 (HDAC3/NCoR2) (Homo sapiens, UniProt O15379); test: Inhibition of C-terminal His-tagged human HDAC3 (1 to 428 residues)/N-terminal GST-tagged human NCOR2 (395 to 489 residues) expressed in baculovirus-infected Sf9 cells using Boc-Lys(acetyI)-AMC as substrate preincubated with enzyme for 1 hr followed by substrate addition and measured after 30 mins by fluorescence based analysis
[6] = biological target: Histone deacetylase 4 (Homo sapiens, UniProt P56524); test: (§1) Inhibition of N-terminal GST-tagged/C-terminal His-tagged human HDAC4 (627 to 1084 residues) expressed in baculovirus-infected Sf9 cells using Boc-Lys(trifluoroacety1)-AMC as substrate preincubated with enzyme for 1 hr followed by substrate addition and measured after 30 mins by fluorescence based analysis
[7] = biological target: Histone deacetylase 5 (Homo sapiens, UniProt Q9UQL6); test: as §1, with “C-terminal” for “N-terminal GST-tagged/C-terminal”, “recombinant HDAC5 catalytic domain (656” for “HDAC4 (627”, “1122” for “1084”
[8] = biological target: Histone deacetylase 9 (Homo sapiens, UniProt Q9UKV0); test: Inhibition of C-terminal His-tagged human recombinant HDAC9 (604 to 1066 residues) expressed in baclovirus-infected Sf9 cells using Boc-Lys(trifluoroacety1)-AMC as substrate preincubated with enzyme for 1 hr followed by substrate addition and measured after 30 mins by fluorescence based analysis
[9] = tested on: RPMI-8226; test: Antiproliferative activity against human RPMI-8226 cells assessed as inhibition of cell proliferation incubated for 48 hrs by CCK8 assay; format: functional, cell-based; details: RPMI-8226, 48 h
[10] = Cytotoxicity against human L02 cells assessed as inhibition of cell proliferation incubated for 48 hrs by CCK8 assay; format: toxicity, cell-based
[11] = tested on: RPMI-8226; test: Induction of apoptosis in human RPMI-8226 cells assessed as proportion of viable cells at 0.1 uM incubated for 24 hrs by AnnexinV-FITC/PI staining based flow cytometry (reference value: 84.71%); format: functional, cell-based
[12] = tested on: RPMI-8226; test: Induction of apoptosis in human RPMI-8226 cells assessed as proportion of early apoptotic cells at 0.1 uM incubated for 24 hrs by AnnexinV-FITC/PI staining based flow cytometry (reference value: 10.63%); format: functional, cell-based
[13] = tested on: RPMI-8226; test: Induction of apoptosis in human RPMI-8226 cells assessed as proportion of late apoptotic cells at 0.1 uM incubated for 24 hrs by AnnexinV-FITC/PI staining based flow cytometry (reference value: 4.18%); format: functional, cell-based
[14] = tested on: RPMI-8226; test: Induction of apoptosis in human RPMI-8226 cells assessed as proportion of late apoptotic cells at 0.5 uM incubated for 24 hrs by AnnexinV-FITC/PI staining based flow cytometry (reference value: 4.18%); format: functional, cell-based
[15] = tested on: RPMI-8226; test: Induction of cell cycle arrest in human RPMI-8226 cells assessed as proportion of cells at G1 phase at 0.1 uM incubated for 24 hrs by PI staining based flow cytometry (reference value: 33.5%); format: functional
[16] = tested on: RPMI-8226; test: Induction of cell cycle arrest in human RPMI-8226 cells assessed as proportion of cells at S phase at 0.1 uM incubated for 24 hrs by PI staining based flow cytometry (reference value: 46.7%); format: functional
[17] = Intrinsic clearance in mouse liver microsomes in presence of NADPH by LC-MS/MS analysis; format: ADME, Microsome; details: read-out: CLH
[18] = tested on: RPMI-8226; test: Antitumor activity against human RPMI-8226 cells xenografted in NCG mouse assessed as T/C ratio at 10 ug administered intratumorally every 2 days by vernier caliper analysis; format: functional; details: dose 10 µg; route it(Intratumoral)

Chain of Histone deacetylase 5 (Q9UQL6 whole entry, the tested form may be a part): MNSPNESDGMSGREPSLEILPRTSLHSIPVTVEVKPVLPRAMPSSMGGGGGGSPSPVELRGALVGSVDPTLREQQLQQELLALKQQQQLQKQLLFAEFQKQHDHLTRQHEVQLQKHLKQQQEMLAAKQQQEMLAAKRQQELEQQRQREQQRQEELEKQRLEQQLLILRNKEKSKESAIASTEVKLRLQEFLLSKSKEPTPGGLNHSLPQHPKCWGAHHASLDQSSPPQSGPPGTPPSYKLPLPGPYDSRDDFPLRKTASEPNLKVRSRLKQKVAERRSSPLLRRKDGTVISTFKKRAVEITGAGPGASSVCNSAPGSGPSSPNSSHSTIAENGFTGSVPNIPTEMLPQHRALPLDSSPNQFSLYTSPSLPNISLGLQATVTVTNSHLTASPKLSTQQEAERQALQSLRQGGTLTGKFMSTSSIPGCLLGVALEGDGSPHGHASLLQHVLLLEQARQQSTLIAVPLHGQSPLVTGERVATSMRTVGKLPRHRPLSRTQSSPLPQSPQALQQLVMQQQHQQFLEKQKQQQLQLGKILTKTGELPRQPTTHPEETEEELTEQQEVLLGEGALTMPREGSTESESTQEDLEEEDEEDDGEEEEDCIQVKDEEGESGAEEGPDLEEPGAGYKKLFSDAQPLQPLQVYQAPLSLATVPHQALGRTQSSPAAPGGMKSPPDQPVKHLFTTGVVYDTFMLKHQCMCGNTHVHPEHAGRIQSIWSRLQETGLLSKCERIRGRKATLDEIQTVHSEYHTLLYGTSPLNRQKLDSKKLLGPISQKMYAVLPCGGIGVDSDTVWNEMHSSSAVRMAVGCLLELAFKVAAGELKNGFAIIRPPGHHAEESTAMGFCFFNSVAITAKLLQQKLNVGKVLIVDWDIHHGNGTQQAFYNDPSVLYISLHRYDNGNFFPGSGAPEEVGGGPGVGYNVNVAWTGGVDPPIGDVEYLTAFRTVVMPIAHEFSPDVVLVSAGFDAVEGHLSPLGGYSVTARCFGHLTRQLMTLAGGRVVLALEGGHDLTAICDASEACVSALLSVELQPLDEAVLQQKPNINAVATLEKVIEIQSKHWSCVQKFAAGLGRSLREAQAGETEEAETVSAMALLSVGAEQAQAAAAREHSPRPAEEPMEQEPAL
Chain of Histone deacetylase 3/Nuclear receptor corepressor 2 (HDAC3/NCoR2) (O15379 whole entry, the tested form may be a part): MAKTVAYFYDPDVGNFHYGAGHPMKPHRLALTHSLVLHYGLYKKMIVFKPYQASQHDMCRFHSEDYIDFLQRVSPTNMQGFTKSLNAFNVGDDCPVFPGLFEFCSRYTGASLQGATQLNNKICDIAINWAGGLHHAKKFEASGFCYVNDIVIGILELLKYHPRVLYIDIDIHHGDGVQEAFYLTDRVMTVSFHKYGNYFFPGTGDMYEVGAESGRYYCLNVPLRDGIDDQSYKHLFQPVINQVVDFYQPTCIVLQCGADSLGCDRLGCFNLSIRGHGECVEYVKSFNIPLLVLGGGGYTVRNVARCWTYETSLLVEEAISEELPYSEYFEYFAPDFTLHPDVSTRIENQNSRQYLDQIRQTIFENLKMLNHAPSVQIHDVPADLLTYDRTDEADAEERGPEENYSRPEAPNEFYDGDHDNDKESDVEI
Chain of Histone deacetylase 3/Nuclear receptor corepressor 2 (HDAC3/NCoR2) (Q9Y618 whole entry, further chain, the tested form may be a part): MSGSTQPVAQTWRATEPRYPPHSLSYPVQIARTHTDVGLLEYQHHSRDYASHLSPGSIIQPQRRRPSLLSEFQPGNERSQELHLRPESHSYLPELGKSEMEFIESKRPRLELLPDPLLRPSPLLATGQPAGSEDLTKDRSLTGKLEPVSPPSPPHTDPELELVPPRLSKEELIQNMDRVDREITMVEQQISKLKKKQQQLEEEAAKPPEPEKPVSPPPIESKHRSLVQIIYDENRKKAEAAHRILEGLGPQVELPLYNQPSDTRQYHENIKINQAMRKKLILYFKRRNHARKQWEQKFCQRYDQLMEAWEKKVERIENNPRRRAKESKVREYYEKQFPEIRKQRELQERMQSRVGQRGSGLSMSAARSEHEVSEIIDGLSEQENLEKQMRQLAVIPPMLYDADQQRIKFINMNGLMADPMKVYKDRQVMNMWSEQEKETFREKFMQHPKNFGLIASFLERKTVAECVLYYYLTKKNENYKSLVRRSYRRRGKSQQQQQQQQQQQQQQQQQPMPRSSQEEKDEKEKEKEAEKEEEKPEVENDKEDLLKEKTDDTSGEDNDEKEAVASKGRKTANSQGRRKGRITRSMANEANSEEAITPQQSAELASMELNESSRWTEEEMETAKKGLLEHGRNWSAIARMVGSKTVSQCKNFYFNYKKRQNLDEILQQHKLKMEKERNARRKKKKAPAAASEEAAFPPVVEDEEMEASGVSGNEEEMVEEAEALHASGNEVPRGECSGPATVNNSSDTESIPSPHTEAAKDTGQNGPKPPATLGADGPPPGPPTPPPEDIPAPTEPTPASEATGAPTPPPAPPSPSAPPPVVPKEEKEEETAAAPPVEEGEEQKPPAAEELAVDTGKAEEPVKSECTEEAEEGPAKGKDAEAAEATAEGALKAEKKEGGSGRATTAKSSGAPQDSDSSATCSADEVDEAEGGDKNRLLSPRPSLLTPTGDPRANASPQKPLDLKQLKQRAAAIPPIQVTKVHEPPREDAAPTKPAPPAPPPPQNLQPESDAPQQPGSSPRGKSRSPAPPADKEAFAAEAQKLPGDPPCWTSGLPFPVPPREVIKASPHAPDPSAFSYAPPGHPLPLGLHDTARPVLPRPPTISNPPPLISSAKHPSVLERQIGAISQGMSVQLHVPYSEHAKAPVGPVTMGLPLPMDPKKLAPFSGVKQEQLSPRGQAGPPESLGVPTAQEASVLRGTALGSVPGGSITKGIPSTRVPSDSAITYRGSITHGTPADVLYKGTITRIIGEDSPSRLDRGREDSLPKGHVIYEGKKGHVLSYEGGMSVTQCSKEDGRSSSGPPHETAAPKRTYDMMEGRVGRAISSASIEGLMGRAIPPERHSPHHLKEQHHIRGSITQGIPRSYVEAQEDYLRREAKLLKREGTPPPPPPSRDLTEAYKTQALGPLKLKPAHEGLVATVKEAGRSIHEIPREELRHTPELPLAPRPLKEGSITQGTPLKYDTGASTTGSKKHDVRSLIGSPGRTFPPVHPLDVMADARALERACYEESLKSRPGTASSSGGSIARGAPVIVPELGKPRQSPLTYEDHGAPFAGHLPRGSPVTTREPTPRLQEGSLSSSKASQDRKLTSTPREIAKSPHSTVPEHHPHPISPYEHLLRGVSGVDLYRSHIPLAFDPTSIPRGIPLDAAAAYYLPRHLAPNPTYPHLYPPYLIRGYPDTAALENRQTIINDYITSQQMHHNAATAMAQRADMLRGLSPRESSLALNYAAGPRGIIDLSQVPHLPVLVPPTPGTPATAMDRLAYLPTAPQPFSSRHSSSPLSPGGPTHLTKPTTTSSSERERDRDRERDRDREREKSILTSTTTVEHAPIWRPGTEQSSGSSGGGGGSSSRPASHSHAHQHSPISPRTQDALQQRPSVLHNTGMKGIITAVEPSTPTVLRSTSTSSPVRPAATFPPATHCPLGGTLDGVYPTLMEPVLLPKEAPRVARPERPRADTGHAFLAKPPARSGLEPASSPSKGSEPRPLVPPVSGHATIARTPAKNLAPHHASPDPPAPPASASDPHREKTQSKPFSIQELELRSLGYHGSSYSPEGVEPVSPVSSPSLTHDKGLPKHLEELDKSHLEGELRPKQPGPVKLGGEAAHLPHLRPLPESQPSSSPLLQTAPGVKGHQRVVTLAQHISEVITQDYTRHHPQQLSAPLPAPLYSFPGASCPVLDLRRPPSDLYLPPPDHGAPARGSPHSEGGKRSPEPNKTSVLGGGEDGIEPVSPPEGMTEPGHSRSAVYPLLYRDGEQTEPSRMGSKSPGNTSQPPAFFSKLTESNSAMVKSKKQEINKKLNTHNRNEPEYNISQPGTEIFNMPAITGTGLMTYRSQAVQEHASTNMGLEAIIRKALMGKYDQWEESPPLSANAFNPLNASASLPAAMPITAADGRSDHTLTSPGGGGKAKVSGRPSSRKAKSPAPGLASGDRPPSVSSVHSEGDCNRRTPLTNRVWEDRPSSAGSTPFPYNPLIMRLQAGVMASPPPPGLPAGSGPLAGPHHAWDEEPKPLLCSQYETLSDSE
Chain of Histone deacetylase 1 (Q13547 whole entry, the tested form may be a part): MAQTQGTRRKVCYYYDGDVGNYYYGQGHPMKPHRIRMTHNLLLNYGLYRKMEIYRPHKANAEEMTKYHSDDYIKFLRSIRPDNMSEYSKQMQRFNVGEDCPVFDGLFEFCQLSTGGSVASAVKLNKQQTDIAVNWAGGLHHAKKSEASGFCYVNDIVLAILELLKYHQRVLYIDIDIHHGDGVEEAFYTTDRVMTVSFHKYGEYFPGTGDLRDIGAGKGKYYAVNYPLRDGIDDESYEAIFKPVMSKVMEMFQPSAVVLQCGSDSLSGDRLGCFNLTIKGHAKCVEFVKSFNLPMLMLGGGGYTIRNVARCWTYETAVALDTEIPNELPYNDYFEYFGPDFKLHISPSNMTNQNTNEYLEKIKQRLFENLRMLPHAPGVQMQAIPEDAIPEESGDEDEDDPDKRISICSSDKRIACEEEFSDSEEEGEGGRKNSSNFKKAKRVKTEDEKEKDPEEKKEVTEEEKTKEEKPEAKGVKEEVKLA

fold change (FC) [1]: 1.2
fold change (FC) [2]: 5.1
IC50 [4]: 4.8 µM
IC50 [5]: 8.2 µM
IC50 [6]: > 40 µM
IC50 [7]: > 40 µM
IC50 [8]: > 40 µM
IC50 [9]: 0.17 µM
CLint scaled [17]: 2990 mL/min/kg
SMILES: O=C(NO)c1ccc(COc2no[n+]([O-])c2S(=O)(=O)c2ccccc2)cc1
fold change (FC) [3]: 1.1
IC50 at 48 h [10]: 8.2 µM
Activity [11]: Active
Activity [12]: Active
Activity [13]: Active
Activity [14]: Active
Activity [15]: 28.8%
Activity [16]: 49.8%
T/C [18]: 55%
